Here are results for 25 compounds from ChEMBL document CHEMBL5257080, “Optimization of physicochemical properties of pyrrolidine GPR40 AgoPAMs results in a differentiated profile with improved pharmacokinetics and reduced off-target activities” (Bioorg Med Chem, 2023).

A short description of series [1]: Permeability of compound across apical to basolateral side in dog MDCK cells. It is filed as ADME, cell-based, Canis lupus familiaris. The note with it: read-out: permeability.
The nature of series [2]: Cmax in rat at 80 mg/kg qd. It counts as ADME, organism-based. The note with it: in vivo. Set-up: dose 80 mg/kg.
Series [3] is described as follows: Toxicity in Sprague-Dawley rat assessed as hypoglycemia at 80 mg/kg, po measured for 24 hrs by glucometer analysis. It counts as organism-based. The note with it: in vivo.
Series [4] is described as follows: Cmax in rat at 800 mg/kg qd. The following applies: in vivo. It is filed as ADME, organism-based. Set-up: dose 800 mg/kg.
Series [5] can be described thus: Cmax in rat at 40 mg/kg bid. The following applies: in vivo. Set-up: dose 40 mg/kg. It counts as ADME, organism-based.
Series [6] can be described thus: AUC (0 to 24 hrs) in rat at 80 mg/kg qd. It is filed as ADME, organism-based. Set-up: dose 80 mg/kg. The following applies: in vivo.
The nature of series [7]: Tmax in rat at 80 mg/kg qd. It is filed as ADME, organism-based. The following applies: in vivo.
Series [8] in a line: Cmax in rat at 240 mg/kg qd. It counts as ADME, organism-based. Set-up: dose 240 mg/kg. The following applies: in vivo.
Series [9] can be described thus: AUC (0 to 24 hrs) in rat at 240 mg/kg qd. It counts as ADME, organism-based. The arrangement: dose 240 mg/kg. The note with it: in vivo.
Series [10] in a line: Tmax in rat at 240 mg/kg qd. It is filed as ADME, organism-based. The note with it: in vivo.
Series [11] can be described thus: AUC (0 to 24 hrs) in rat at 800 mg/kg qd. It counts as ADME, organism-based. The arrangement: dose 800 mg/kg. The following applies: in vivo.
Series [12] in a line: Tmax in rat at 800 mg/kg qd. It is filed as ADME, organism-based. The note with it: in vivo.
Series [13] in a line: Lipophilicity, logD of compound. It counts as physicochemical. The note with it: octanol/water.
Series [14] has as its target T1, Peroxisome proliferator-activated receptor gamma (Homo sapiens, UniProt P37231).
T1 sequence (P37231 whole entry): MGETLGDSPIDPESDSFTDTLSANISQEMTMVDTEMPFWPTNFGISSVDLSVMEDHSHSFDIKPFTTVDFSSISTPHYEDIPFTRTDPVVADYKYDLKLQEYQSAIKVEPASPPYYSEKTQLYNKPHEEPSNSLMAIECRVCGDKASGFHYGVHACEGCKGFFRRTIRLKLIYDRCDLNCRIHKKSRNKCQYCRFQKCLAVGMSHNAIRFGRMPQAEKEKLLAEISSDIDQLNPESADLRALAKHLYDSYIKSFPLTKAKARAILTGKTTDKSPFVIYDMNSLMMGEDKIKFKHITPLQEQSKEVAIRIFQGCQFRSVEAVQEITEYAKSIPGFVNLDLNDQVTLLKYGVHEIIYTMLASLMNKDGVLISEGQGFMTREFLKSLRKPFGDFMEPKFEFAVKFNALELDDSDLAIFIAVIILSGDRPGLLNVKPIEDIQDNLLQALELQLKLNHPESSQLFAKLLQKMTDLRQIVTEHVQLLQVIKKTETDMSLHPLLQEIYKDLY
Put plainly: Transactivation of PPARgamma (unknown origin).

The target of series [15] is T2, Free fatty acid receptor 1 (Homo sapiens, UniProt O14842). Put plainly: Positive allosteric modulation of human GPR40 by calcium based FLIPR analysis.
Series [16] is described as follows: Cmax in mouse at 1 mg/kg. It counts as ADME, organism-based. Set-up: dose 1 mg/kg. The note with it: in vivo.
Series [17] is described as follows: AUC (0-7hrs) in mouse at 1 mg/kg. It is filed as ADME, organism-based. The arrangement: dose 1 mg/kg. The note with it: in vivo.
For series [18], the target named is Free fatty acid receptor 1 (Mus musculus, UniProt Q76JU9). Put plainly: Positive allosteric modulation of mouse GPR40.
The target of series [19] is T2, Free fatty acid receptor 1. Put plainly: Positive allosteric modulation of human GPR40 expressed in HEK293 cells. It counts as cell-based.
Series [20] in a line: Toxicity in rat assessed as change in spontaneous locomotor activity. The note with it: in vivo.
Series [21] is described as follows: Toxicity in rat. The note with it: in vivo.
Series [22] in a line: Toxicity in rat assessed as change in heart rate. The note with it: in vivo.
Series [23] has as its target T2, Free fatty acid receptor 1. Put plainly: Positive allosteric modulation of human GPR40 expressed in HEK293 cells assessed as maximum efficacy relative to control. It counts as cell-based. The following applies: filed as positive allosteric modulator.
The subject of another series is Mus musculus. Put plainly: Anti-hyperglycemic activity against mouse assessed as reduction in plasma glucose level at 3 mg/kg, po by OGTT analysis. It is filed as functional, organism-based.
A short description of series [24]: Drug concentration in mouse plasma measured after 3 hrs. It counts as ADME.
Series [25] is described as follows: Metabolic stability in mouse liver microsome assessed as parent compound remaining after 10 mins. It counts as ADME. The following applies: liver microsomes, read-out: Stability. On the technique in general: Microsomes from liver hold many membrane-bound enzymes, among them those of drug oxidation.

Activity calls are given as the source filed them. No cut-off for these calls is given here.

T2 sequence (O14842 whole entry): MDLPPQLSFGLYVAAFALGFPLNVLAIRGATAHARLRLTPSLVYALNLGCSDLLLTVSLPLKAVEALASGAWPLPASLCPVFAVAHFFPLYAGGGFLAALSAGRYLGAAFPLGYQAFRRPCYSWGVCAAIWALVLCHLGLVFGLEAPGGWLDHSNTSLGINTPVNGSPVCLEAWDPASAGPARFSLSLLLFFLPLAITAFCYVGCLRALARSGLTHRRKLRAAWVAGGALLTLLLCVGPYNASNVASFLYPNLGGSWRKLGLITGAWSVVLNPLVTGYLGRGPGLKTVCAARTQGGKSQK
Sequence of Free fatty acid receptor 1 (Mus musculus, UniProt Q76JU9) (Q76JU9 whole entry): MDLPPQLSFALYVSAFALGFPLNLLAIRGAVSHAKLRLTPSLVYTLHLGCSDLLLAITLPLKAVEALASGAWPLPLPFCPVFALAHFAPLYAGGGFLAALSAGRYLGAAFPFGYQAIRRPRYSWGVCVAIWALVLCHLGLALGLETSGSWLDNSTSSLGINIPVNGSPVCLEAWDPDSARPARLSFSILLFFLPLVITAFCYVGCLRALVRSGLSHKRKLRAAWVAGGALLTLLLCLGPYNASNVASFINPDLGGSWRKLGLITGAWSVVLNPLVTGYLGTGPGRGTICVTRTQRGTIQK

`COc1ccc(F)c(-c2ccc(Cc3ccc(N4N=C(C(F)(F)F)[C@@H](C)[C@@H]4CC(=O)O)cc3)c(C)c2)c1`: the Papp A→B in series [1] was determined as 5.7 ×10⁻⁶ cm/s. Further, the Cmax in [2] was 30 µM; in series [4] it was 65 µM; in series [5], 30 µM; in series [8], 30 µM. Moreover, in [3], the Activity result is “Non-Toxic”. In addition, the AUC in series [6] is 243 µM·h; in series [9] it was 1080 µM·h; in series [11], 1430 µM·h. In addition, the Tmax is 4 h in series [7], 6 h in series [10] and 48 h in series [12].
`CCOc1ccc(F)c(N2CCC(Oc3ccc(N4C[C@H](Oc5cccc(OC)c5)C[C@@H]4CC(=O)O)cc3)CC2)c1` came in with a logD in series [13] of 2.15. Moreover, the EC50 in series [14] is over 47 µM.
Regarding `CCOc1ccc(F)c(N2CC[C@@H](Oc3ccc(N4C[C@](C)(OC)C[C@@H]4CC(=O)O)cc3)[C@H](C)C2)c1`, the EC50 in [15] was 220 nM.
As for `CCOc1ccc(F)c(N2CCC(Oc3ccc(N4C[C@H](Oc5ccccc5)C[C@@H]4CC(=O)O)cc3)CC2)c1`, the logD in series [13] was 2.44. In [14], the EC50 is over 47 µM.
With `COc1cc(N2CC[C@@H](Oc3ccc(N4C[C@H](F)[C@@H](OC)[C@@H]4CC(=O)O)cc3)[C@H](C)C2)c(Cl)cn1`, the EC50 in [14] was over 48 µM.
As for `CCOc1ccc(F)c(N2CC[C@@H](Oc3ccc(N4C[C@H](OCCCOC)[C@@H](C)[C@@H]4CC(=O)O)cc3)[C@H](C)C2)c1`, in series [13], the logD turned out to be 1.82. In series [16], the Cmax was determined as 1400 nM. Further, in series [17], the exposure AUC(0-t) worked out at 2.9 µM·h. The EC50 in [18] was 18 nM; in series [14], over 47 µM; in series [15], 51 nM.
For `COc1ccc(F)c(N2CCC(Oc3ccc(N4CCC[C@@H]4CC(=O)O)cc3)CC2)c1`, the EC50 in [19] is 1400 nM; in series [14] it was over 50 µM.
For the compound `CCCCCO[C@H]1CN(c2ccc(O[C@@H]3CCN(c4cc(OC)ncc4Cl)C[C@H]3C)cc2)[C@@H](CC(=O)O)[C@@H]1C`, the EC50 in series [15] turned out to be 190 nM.
Consider `COc1ccc(F)c(-c2ccc(Cc3ccc(N4C[C@H](C(F)(F)F)C[C@@H]4CC(=O)O)cc3)c(C)c2)c1`, for which the Activity result in series [3] is listed as “Non-Toxic”; in series [20], “Non-Toxic”; in series [21], “Toxic”; in series [22], “Non-Toxic”. For the same compound, the Emax in series [23] amounted to 97%.
`COc1cc(N2CC[C@@H](Oc3ccc(N4C[C@H](C(F)(F)F)[C@@H](C)[C@@H]4CC(=O)O)cc3)[C@H](C)C2)c(Cl)cn1` yielded an EC50 in [14] of over 48 µM.
Take `CCOc1ccc(F)c(N2CC[C@@H](Oc3ccc(N4C[C@H](C(F)(F)F)C[C@@H]4CC(=O)O)cc3)[C@H](CC(C)C)C2)c1`: in series [15], the EC50 is 430 nM.
For the compound `COc1cc(N2CC[C@@H](Oc3ccc(N4CC[C@@H](C)[C@@H]4CC(=O)O)cc3)[C@H](C)C2)c(Cl)cn1`, the EC50 is over 48 µM in series [14] and 110 nM in [15].
In series [14], `CCOc1ccc(F)c(N2CC[C@@H](Oc3ccc(N4CC(C)(C)C[C@@H]4CC(=O)O)cc3)[C@H](C)C2)c1` displayed an EC50 of over 48 µM.
In the case of `CCOc1ccc(F)c(N2CC[C@@H](Oc3ccc(N4C[C@H](C(F)(F)F)C[C@@H]4CC(=O)O)cc3)[C@H](CC)C2)c1`, in [15], the EC50 was found to be 430 nM.
In series [14], `CCOc1ccc(F)c(N2CC[C@@H](Oc3ccc(N4C[C@H](C(F)(F)F)C[C@@H]4CC(=O)O)cc3)[C@H](C)C2)c1` had an EC50 of over 48 µM.
On the same count and under the same terms, the value for `CCOc1ccc(F)c(N2CC[C@@H](Oc3ccc(N4C[C@H](OC)C[C@@H]4CC(=O)O)cc3)[C@H](C)C2)c1` was 12 µM.
On to `COc1cc(N2CC[C@@H](Oc3ccc(N4C[C@H](OCCCC#N)[C@@H](C)[C@@H]4CC(=O)O)cc3)[C@H](C)C2)c(Cl)cn1`, for which the EC50 in series [15] was determined as 120 nM.
The same measure, in the same setting: the value for `CCOc1ccc(F)c(N2CC[C@@H](Oc3ccc(N4C[C@H](C(F)(F)F)C[C@@H]4CC(=O)O)cc3)[C@H](Cc3ccccc3)C2)c1` was 740 nM; that for `COCCOCO[C@H]1CN(c2ccc(O[C@@H]3CCN(c4cc(OC)ncc4Cl)C[C@H]3C)cc2)[C@@H](CC(=O)O)[C@@H]1C` was 180 nM.
In series [16], `CCOc1ccc(F)c(N2CC[C@@H](Oc3ccc(N4C[C@H](OC)[C@@H](C)[C@@H]4CC(=O)O)cc3)[C@H](C)C2)c1` showed a Cmax of 500 nM. The AUC(0-t) in [17] was determined as 0.5 µM·h. For the same compound, in series [14], the EC50 was over 48 µM.
The compound `CCOc1ccc(F)c(N2CCC(Oc3ccc(N4C[C@H](OCCCOC)C[C@@H]4CC(=O)O)cc3)CC2)c1` had a logD in [13] of 0.81. In addition, the EC50 in series [14] is over 47 µM.
Consider `CCOc1ccc(F)c(N2CC[C@@H](Oc3ccc(N4C[C@H](OCCCOC)C[C@@H]4CC(=O)O)cc3)[C@H](C)C2)c1`, for which the logD in series [13] was 1.3.
Consider `CCOc1ccc(F)c(N2CC[C@@H](Oc3ccc(N4C[C@H](c5ccccc5)C[C@@H]4CC(=O)O)cc3)[C@H](C)C2)c1`, for which the EC50 in series [14] is over 48 µM; in series [15] it was 230 nM.
Turning to `COc1ccc(F)c(N2CCC(Oc3ccc(N4CCC[C@H]4CC(=O)O)cc3)CC2)c1`, the EC50 in [19] is 4100 nM; in [14] it was over 50 µM.
On to `COc1cc(N2CC[C@@H](Oc3ccc(N4C[C@H](F)[C@@H](C)[C@@H]4CC(=O)O)cc3)[C@H](C)C2)c(Cl)cn1`, for which the values for the EC50 in [18], in series [14] and in [15] were 48 nM, over 48 µM and 29 nM, respectively. For the same compound, the outcome in the series on Mus musculus was inactive. In [24], this compound came in with a concentration at 3 h of 156 nM. For the same compound, in [25], the remaining at 10 min worked out at 97%.

The term Cmax denotes the maximum level reached in the sampled fluid or tissue. By AUC is commonly meant concentration integrated over time. Lower therefore signals low exposure. One may read the Tmax as the time at which the peak concentration occurs. A word on the logD: it is lipophilicity at a set pH, counting ionised and neutral species. What is called EC50 is the concentration needed to bring the measured effect to its halfway point. Broadly, the AUC(0-t) is exposure summed from dosing to a finite time, without extrapolation to infinity. The low end stands for less exposure, the high end for more exposure. As a reminder, the Emax is the greatest response seen or fitted, relative to the assay's reference.
